Data as given in the RepoRT retention time repository.

Test: RP, Waters ACQUITY UPLC BEH C18, 50 × 2.1 mm, 1.7 µm, 40 °C, 0.6 mL/min, estimated dead time 0.18 min; A: water + 0.1% formic acid, pH 3; B: acetonitrile + 0.1% formic acid, pH 3; gradient (min/%B) 0/5 7/100 8/100
Details: stereoisomer not certain

| SMILES | LC retention time |
| --- | --- |
| CCCCCCCCCCCCCCC[C@@H]1CCC[C@@H](C)N1 [(2R,6R)-2-methyl-6-pentadecylpiperidine] | 5.12 min |
| O=C(c1ccc(O)cc1O)[C@H]1[C@H](C(=O)c2ccc(O)cc2O)[C@H](c2ccc(O)cc2)O[C@@H]1c1ccc(O)cc1 | 2.81 min |
| CC(C)=CCCC(C)C12C=CC(C)(CC1)OO2 (centres undefined) | 4.96 min |
| C[C@@H]1CC2(NCCS2)[C@]2(O)OC3C[C@@]4(C=O)C(CCC5C4CC[C@]4(C)C(C6=CC(=O)OC6)CC(O)[C@]54O)CC3OC2O1 (some centres undefined) | 0.365 min |
| COc1ccc(-c2oc3cc(O)c(OC)c(O)c3c(=O)c2OC)cc1O | 2.2 min |
| C/C=C1/C2C=C(C)CC1(N)c1ccc(=O)[nH]c1C2 (centres undefined) | 0.913 min |
| C=C(CO)C(=O)OC1CC(=C)C2CC(O)C(=C)C2C2OC(=O)C(=C)C12 (centres undefined) | 2.16 min |
| COc1cc(O)c2c(c1)C(=O)c1cc(C)cc(O)c1C2=O | 4.7 min |
| CC(=O)OC(C)(C)/C=C/C(=O)[C@](C)(O)[C@H]1[C@H](O)C[C@@]2(C)[C@@H]3CC=C4C(C=C(O)C(=O)C4(C)C)[C@]3(C)C(=O)C[C@]12C (some centres undefined) | 3.63 min |
| CCCCCCCCCCCCC[C@@H]1CCC[C@@H](C)N1 [(2R,6R)-2-methyl-6-tridecylpiperidine] | 4.58 min |
| CC12CCCc3coc(c31)C(=O)c1cc3c(cc12)C(=O)C=CC3=O (centres undefined) | 2.6 min |

Now from value to compound:

| LC retention time | SMILES |
| --- | --- |
| 3.64 min | C=C1C2CCC3C4(C)CCCC(C)(C(=O)O)C4CCC3(C2)C1O (centres undefined) |
| 3.02 min | C=C1CCC(C(C)C)=CC2C1CCC2(C)O (centres undefined) |
| 1.55 min | CCC1C2CCCCN3C(C4CC(C)C(=O)O4)CC(C4C(C)C(=O)OC14)C23 (centres undefined) |
| 3.04 min | C=C1CCC2(OC1)OC1CC3C4C(O)C(=O)C5(O)C(O)C(O)C(O)C(O)C5(C)C4CCC3(C)C1C2C (centres undefined) |
| 4.38 min | CC(C)=CC(O)C[C@@H](C)[C@H]1CC[C@@]2(C)C3C(=O)C=C4C(CCC(O)C4(C)C)[C@]3(C)CC[C@]12C (some centres undefined) |
| 2.42 min | C=C1C(=O)C23C(O)CC4C(C)(C)CCCC4(COC(C)=O)C2C(O)CC1C3O (centres undefined) |
| 0.319 min | O=C1c2c(O)cc(O)c(C3C(=O)c4c(O)cc(O)cc4OC3c3ccc(O)cc3)c2OC(c2ccc(O)c(O)c2)C1O (centres undefined) |
| 2.78 min | O=C1CC(c2ccc(O)cc2)Oc2cc3c(c(O)c21)C(C(=O)c1ccc(O)cc1O)C(c1ccc(O)cc1)O3 (centres undefined) |
